The results in this text go back to ChEMBL document CHEMBL1155543 (Bioorg Med Chem Lett, 2010).

Assay [1] concerns the target Carbonic anhydrase 5A, mitochondrial (Homo sapiens, UniProt P35218).
In assay [2] the target is Carbonic anhydrase 12 (Homo sapiens, UniProt O43570).
For assay [3], the target named is Carbonic anhydrase 14 (Homo sapiens, UniProt Q9ULX7).
The target in assay [4] is Carbonic anhydrase 13 (Mus musculus, UniProt Q9D6N1).
Assay [5] addresses Carbonic anhydrase 4 (Homo sapiens, UniProt P22748).
For assay [6], the target named is Carbonic anhydrase 7 (Homo sapiens, UniProt P43166).
In assay [7] the target is T1, Carbonic anhydrase 15 (Mus musculus, UniProt Q99N23).
T1 sequence (Q99N23 whole entry): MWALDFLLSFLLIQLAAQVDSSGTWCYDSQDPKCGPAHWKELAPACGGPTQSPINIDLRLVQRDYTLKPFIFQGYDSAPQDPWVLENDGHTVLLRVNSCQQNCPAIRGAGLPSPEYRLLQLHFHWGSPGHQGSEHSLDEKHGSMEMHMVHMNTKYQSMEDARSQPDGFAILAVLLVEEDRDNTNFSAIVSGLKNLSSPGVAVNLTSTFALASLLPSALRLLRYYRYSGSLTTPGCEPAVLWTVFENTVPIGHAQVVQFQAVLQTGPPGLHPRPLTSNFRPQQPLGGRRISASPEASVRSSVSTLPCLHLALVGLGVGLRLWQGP

The target in assay [8] is Carbonic anhydrase 3 (Homo sapiens, UniProt P07451).
Assay [9] concerns the target Carbonic anhydrase 5B, mitochondrial (Homo sapiens, UniProt Q9Y2D0).
The target in assay [10] is Carbonic anhydrase 6 (Homo sapiens, UniProt P23280).
Sequence of Carbonic anhydrase 6 (P23280 whole entry): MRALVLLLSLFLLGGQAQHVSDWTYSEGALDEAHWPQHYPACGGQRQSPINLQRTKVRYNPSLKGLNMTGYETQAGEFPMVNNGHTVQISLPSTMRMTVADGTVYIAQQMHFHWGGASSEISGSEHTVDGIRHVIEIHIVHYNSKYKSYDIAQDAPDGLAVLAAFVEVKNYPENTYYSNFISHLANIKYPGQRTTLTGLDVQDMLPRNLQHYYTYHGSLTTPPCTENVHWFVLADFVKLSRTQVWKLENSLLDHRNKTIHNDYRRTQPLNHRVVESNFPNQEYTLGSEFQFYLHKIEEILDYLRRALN

Sequence of Carbonic anhydrase 3 (P07451 whole entry): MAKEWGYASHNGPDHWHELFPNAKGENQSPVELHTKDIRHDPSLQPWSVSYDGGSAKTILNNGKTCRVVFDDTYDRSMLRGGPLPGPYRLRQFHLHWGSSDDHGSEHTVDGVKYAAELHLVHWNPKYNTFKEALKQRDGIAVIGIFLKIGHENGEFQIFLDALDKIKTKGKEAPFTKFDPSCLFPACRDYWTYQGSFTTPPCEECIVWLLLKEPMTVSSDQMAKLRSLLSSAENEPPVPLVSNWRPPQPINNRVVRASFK
Sequence of Carbonic anhydrase 14 (Q9ULX7 whole entry): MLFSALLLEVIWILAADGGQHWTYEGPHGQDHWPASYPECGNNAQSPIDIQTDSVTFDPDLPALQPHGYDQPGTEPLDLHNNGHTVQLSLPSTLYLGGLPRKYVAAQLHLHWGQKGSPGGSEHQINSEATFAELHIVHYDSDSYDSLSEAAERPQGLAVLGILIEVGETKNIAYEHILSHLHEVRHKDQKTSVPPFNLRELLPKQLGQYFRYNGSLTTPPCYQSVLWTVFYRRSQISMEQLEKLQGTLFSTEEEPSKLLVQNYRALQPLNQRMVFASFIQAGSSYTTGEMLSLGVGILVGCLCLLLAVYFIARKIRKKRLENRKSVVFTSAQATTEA
Sequence of Carbonic anhydrase 5A, mitochondrial (P35218 whole entry): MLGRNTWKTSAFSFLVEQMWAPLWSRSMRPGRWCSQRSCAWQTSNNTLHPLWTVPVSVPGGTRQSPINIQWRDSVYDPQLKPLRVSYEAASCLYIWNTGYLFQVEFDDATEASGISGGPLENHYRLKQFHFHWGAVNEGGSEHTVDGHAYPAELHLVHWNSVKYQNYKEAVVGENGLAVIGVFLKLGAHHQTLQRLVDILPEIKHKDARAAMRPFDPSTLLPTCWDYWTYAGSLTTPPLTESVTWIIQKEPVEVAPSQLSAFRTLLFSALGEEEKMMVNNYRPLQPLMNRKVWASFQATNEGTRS
Sequence of Carbonic anhydrase 12 (O43570 whole entry): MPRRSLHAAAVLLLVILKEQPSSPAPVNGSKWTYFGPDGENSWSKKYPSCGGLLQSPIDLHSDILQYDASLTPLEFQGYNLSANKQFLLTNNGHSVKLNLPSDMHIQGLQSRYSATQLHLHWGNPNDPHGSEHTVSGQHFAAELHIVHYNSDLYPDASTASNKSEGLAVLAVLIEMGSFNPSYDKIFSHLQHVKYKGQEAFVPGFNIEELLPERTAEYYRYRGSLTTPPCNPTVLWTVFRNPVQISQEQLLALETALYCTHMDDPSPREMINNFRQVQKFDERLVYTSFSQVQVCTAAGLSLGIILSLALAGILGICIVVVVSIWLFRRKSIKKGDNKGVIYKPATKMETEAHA
Sequence of Carbonic anhydrase 4 (P22748 whole entry): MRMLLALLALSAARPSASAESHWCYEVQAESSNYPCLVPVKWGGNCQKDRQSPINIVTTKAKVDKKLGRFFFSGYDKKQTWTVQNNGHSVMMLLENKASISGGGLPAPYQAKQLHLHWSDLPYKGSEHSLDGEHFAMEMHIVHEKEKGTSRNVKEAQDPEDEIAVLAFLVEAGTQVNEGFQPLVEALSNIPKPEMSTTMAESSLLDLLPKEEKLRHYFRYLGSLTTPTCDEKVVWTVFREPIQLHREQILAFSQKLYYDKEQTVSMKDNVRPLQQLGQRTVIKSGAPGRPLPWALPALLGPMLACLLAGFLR
Sequence of Carbonic anhydrase 5B, mitochondrial (Q9Y2D0 whole entry): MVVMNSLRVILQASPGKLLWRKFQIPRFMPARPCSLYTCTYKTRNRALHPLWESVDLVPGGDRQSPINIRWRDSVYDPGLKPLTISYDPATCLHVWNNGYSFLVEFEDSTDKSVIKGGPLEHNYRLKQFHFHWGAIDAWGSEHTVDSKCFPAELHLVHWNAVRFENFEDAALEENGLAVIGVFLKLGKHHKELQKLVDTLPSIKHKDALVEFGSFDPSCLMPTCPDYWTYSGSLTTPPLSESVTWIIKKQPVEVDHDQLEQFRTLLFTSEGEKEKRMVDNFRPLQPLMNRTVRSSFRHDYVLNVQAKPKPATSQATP
Sequence of Carbonic anhydrase 13 (Q9D6N1 whole entry): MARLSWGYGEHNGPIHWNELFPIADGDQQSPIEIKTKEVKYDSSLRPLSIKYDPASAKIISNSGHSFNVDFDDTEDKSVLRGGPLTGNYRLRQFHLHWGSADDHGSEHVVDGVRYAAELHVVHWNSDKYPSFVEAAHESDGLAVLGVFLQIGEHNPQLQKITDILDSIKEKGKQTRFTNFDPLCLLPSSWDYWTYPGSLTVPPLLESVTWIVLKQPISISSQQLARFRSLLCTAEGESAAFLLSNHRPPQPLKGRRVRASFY
Sequence of Carbonic anhydrase 7 (P43166 whole entry): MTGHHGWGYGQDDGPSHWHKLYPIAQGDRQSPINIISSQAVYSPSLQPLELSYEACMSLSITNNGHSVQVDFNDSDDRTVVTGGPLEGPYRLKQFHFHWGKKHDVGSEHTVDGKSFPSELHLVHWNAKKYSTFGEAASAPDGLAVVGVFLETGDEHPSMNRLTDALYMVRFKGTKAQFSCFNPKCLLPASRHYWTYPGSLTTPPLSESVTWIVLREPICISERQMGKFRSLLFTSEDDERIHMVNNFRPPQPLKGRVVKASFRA

For the compound `CC1(C)OB(c2ccc(NS(N)(=O)=O)cc2)OC1(C)C`, the Ki in assay [1] amounted to 0.087 µM; in assay [2], 0.0089 µM; in assay [3], 0.0071 µM; in [4], 0.994 µM; in [5] it was 8.62 µM; in assay [6], 0.084 µM. Besides, the Ki in [7] was determined as 0.089 µM; in [8] it was 8.77 µM; in assay [9], 0.075 µM; in assay [10] it was 0.749 µM.

As for `NS(N)(=O)=O` [SULFAMIDE], the affinity in assay [8] corresponds to a Ki of 1090 µM.

In [8], `CC1(C)O[C@@H]2[C@@H](CO[C@@]3(CNS(N)(=O)=O)OC(C)(C)O[C@@H]23)O1` had a Ki of 4000 µM.

As a reminder, the Ki is a dissociation constant, usually derived from enzyme kinetics or from competition with a known ligand. The low end stands for higher affinity, the high end for lower affinity.
